According to PMC11079064, “Discovery of a brain penetrant small molecule antagonist targeting LPA1 receptors to reduce neuroinflammation and promote remyelination in multiple sclerosis” (Scientific Reports, 2024):
Where two headings read alike, the source gives them in different places.

Key:
microglia = test: Microglial myelin debris phagocytosis assay; type: cell-based, rat; settings: any concentration, activated microglia, 90 min myelin debris
Procedure: Fluoromyelin-labeled myelin debris was added for 90 min and then the cultures were fixed. IBA1^+/fluoromyelin^+ cells were quantified and normalized to total IBA1^+ cells.
For phagocytosis, microglia were harvested from cortical cultures generated from P2 rats. Cortices were isolated, meninges removed, minced and digested in 0.05% trypsin (Invitrogen, Carlsbad, CA, Carlsbad, CA) for 15 min at 37 °C. Tissue was allowed to settle, trypsin removed and HBSS (Corning, Glendale, AZ) with 20% FBS (20% HBSS) was added to halt further digestion. Tissue was washed again in 20% HBSS and resuspended in DMEM with 10% FBS and penicillin/streptomycin (10% DMEM). Cells were plated in a T150 flask and cultured for 10 days with media changes every other day. Microglia were mechanically isolated by tapping flask against the hood surface. Microglia were transferred to a conical and centrifuged at 800 × g for 15 min and resuspended in 10% DMEM, plated in 96 wells at a density of 5000/well and cultured for 3 days. […] Fluoromyelin labeled myelin debris was added to each well and incubated for 90 min. Microglia were then fixed and immunostained for IBA1 (Invitrogen, Carlsbad, CA, Carlsbad, CA). […]
Supplemental Figure 7. […] Total IBA1^+ and IBA1^+/fluoromyelin^+ cells were counted. […]

[1] = test system: rat brain meningeal fibroblasts; test: LPA-induced activation of rat meningeal fibroblasts (COL1+ area); type: cell-based; settings: LPA stimulation, read-out: IC50 of inhibition of increase in COL1+ area
Procedure: Recent work from Dorrier et al., has implicated persistent fibrotic scarring in the CNS in the mouse EAE model and that the contributing cells were of meningeal origin. […] We cultured primary rat or human brain meningeal fibroblasts and applied 10 µM LPA to induce activation. Upon LPA stimulation, we saw a change in morphology that could be quantified as a change in collagen I (COL1^+) area.
Meningeal fibroblasts were isolated from postnatal day 8 CD-1 rats (Charles River Labs, Willington, MA). Meninges were peeled off and digested in Accutase (Thermo Fisher, Waltham, MA, Waltham, MA) for 20 min at room temperature. […] was added to stop protease activity. Digested meninges were dissociated by trituration and cells were strained through a 40 µm nylon mesh and spun down at 800 g for 15 min. The cell pellet was resuspended in DMEM + 10% FBS and plated in a T-75 flask (Corning) for 10 days. Cells were lifted with Accutase and replated into 96-well Perkin Elmer, Boston, MA Viewplates, at 15k per well. The next day, cells were starved in DMEM for 8 h. […] 1 µM LPA or vehicle were added for 5 h. […] Primary antibody was detected using a goat-anti-mouse Alexa488 secondary antibody (Invitrogen, Carlsbad, CA, 1:250) with Hoechst. Wells were imaged on Nikon A1R confocal and Col1^+ area measured normalized to cell number (Hoechst count). […]

[2] = test system: mouse cortical brain slices; test: Lysolecithin-treated mouse organotypic slice culture, MBP and Caspr immunostaining; type: cell-based; settings: then 5 days treatment
Procedure: Slices were also evaluated using a histological endpoint. […] Caspr clustering was used as a marker for nodes of Ranvier formation which implicates the presence of functional axons that have responded to myelination[39],[40].
Immunohistological evaluation of MBP and Caspr in mouse brain slice culture: Brain slices were cultured as described above. After compound treatment, slices were fixed in 4% PFA for 30 m, blocked in 10% donkey serum, 0.2% Triton X-100, followed by overnight incubation in primary antibodies in blocking solution. Antibodies used were MBP (rat, 1:500, Millipore, Temecula, CA), Caspr (rabbit 1:250 Abcam, Fremont, CA) Tuj1 (mouse, 1:500, Biolegend, San Diego, CA). Slices were washed with 3 × 15 m PBS followed by incubation with secondary antibodies (anti-rat, Alexa488; anti-rabbit, Alexa568, anti-mouse, Alexa647, Hoechst counterstain) in blocking buffer. All secondary antibodies were produced in donkey (Invitrogen, Carlsbad, CA, Carlsbad, CA) and used at 1:250. Filters were excised from insert, mounted with Fluoromount (Millipore Sigma, St. Louis) on a microscope slide and coverslipped. […] Image analysis was performed using ImageJ. MBP was expressed as MBP surface area normalized to Hoechst cell count; Caspr was expressed as the number of Caspr puncta normalized to Tuj1 intensity.

COc1ccc(NC(=O)N(c2ccccc2C(C)C)C2CCC(C(=O)O)CC2)c(OC(F)F)n1 (stereo not shown) [PIPE-791]
effect on myelin phagocytosis compared to vehicle (microglia): No significant decrease | IC50 [1]: 31.8 nM | EC50 ([2]; read-out: EC50 of MBP+ area increase): 74 nM | EC50 ([2]; read-out: EC50 of increase in number of Caspr puncta): 17.9 nM
